Results reported in US20180057505A1, “BICYCLIC HETEROARYL COMPOUNDS USEFUL AS INHIBITORS OF THE PAR-2 SIGNALING PATHWAY” (VERTEX PHARMACEUTICALS INCORPORATED, priority 2015, published 2018).

Experiments:
Type in all cases: cell-based
[1] = system: UTP-stimulated Ca2+ response in HT-29 cells; test: Ca FLIPR TETRA assay, ANTAGONIST mode, activator 0.6 μM UTP; conditions: HT-29 cells, activator 0.6 μM UTP
Description: (§1) Protocol for Testing PAR2 Compounds in ANTAGONIST Mode Using the Ca FLIPR^TETRA Assay (384 Well).
(§2) 23000 HT-29 cells (ATCC# HTB-38) were plated in 384-well black, transparent-flat bottom plates and incubated in 25 uL of 1% FBS/McCoy's media ON at 37° C. under an atmosphere of 5% CO2. The following day, 25 uL FLIPR calcium 5 Molecular Devices assay reagent (Cat: R-8186) was added. Plates were incubated at 37° C. and r. t. for 45 min and 15 min, respectively. Compounds dilutions were prepared in 100% DMSO using a Biomek FX and diluted 20-fold in HBSS and then 5.5 uL was added directly to the cells by the FLIPR^TETRA (10× dilution) using FLIPR Tetra Pipette tips, black, non-sterile, 384 Molecular Devices (Cat: 9000-0764).
(§3) A first read was performed to determine whether the test compounds on their own can activate Ca^2+ responses. The cells were incubated with the compounds for 30 min at r. t. and then read in ANTAGONIST mode in the same plate by stimulating with 6.2 uL of a fixed concentration of the activator: final concentrations 8 μM SLIGKV, 1 U/mL Thrombin, 3.1 U/mL trypsin, or 0.6 μM UTP.

[2] = system: Thrombin-stimulated Ca2+ response in HT-29 cells; test: Ca FLIPR TETRA assay, ANTAGONIST mode, activator 1 U/mL Thrombin; conditions: HT-29 cells, activator 1 U/mL Thrombin
Description: as §1, §2, §3

PAR2 (HT-29 cells) [3] = biological target: T1, PAR2 (HT-29 cells) (Homo sapiens, UniProt P55085); test: Ca FLIPR TETRA assay, ANTAGONIST mode, activator 3.1 U/mL trypsin; conditions: HT-29 cells, activator 3.1 U/mL trypsin
T1 construct: host or cells: HT-29
T1 sequence (P55085 26-397): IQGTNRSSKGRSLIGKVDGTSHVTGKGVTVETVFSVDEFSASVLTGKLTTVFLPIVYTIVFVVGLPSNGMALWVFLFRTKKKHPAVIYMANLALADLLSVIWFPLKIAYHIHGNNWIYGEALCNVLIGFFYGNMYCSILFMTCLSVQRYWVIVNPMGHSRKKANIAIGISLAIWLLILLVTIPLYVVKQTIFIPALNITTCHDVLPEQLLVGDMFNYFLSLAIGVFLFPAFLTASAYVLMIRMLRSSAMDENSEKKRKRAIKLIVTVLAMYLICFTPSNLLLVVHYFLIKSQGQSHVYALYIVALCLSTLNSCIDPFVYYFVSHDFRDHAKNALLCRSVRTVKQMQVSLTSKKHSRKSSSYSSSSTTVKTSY
Description: as §1, §2, §3

PAR2 (HT-29 cells) [4] = biological target: T1, PAR2 (HT-29 cells); test: Ca FLIPR TETRA assay, ANTAGONIST mode, activator 8 μM SLIGKV; conditions: HT-29 cells, activator 8 μM SLIGKV
Description: as §1, §2, §3

[5] = maximal antagonist concentration per Method (A: 0.1, 1 or 2 μM; B: 50 μM)
[6] = Method A: maximal concentration of antagonist 0.1, 1 or 2 μM

Row | IC50 ([1]; Homo sapiens) | IC50 ([2]; Homo sapiens) | IC50 (PAR2 (HT-29 cells) [3]; [5]) | IC50 (PAR2 (HT-29 cells) [4]; [5]) | IC50 (PAR2 (HT-29 cells) [3]; [6]) | IC50 (PAR2 (HT-29 cells) [4]; [6]) | IC50 [1] | IC50 [2] | SMILES
1 | > 2000 nM | 1750 nM | 7.4 nM | 3.6 nM | – | – | – | – | CC1(C)CCC(c2cc(C(C)(C)C)c3oc(C(=O)N4CCN(c5ccc(C(=O)O)cn5)C(=O)C4(C)C)cc3n2)CC1 [Example I-281, 6-[4-[7-tert-butyl-5-(4,4-dimethylcyclohexyl)furo[3,2-b]pyridine-2-carbonyl]-3,3-dimethyl-2-oxo-piperazin-1-yl]pyridine-3-carboxylic acid]
2 | 20000 nM | 32000 nM | 1900 nM | 260 nM | – | – | – | – | CC(C)c1nc(-c2ccc(F)cc2)nc2cc(C(=O)N3CCN(C(=O)[C@H](O)CC(C)(C)C)[C@@H](C)C3)oc12 [Example I-125]
3 | 6100 nM | 9800 nM | 780 nM | 600 nM | – | – | – | – | C[C@H]1CN(C(=O)c2cc3nc(-c4ccc(F)cc4)cc(C4(C)CC4)c3o2)CCN1C(=O)C1(C)CC1 [Example I-118]
4 | 11000 nM | 13000 nM | 27 nM | 13 nM | – | – | – | – | CC(C)[C@@H](O)C(=O)N1CCN(C(=O)c2cc3nc(-c4ccc(F)cc4)cc(C4(C)CC4)c3o2)C[C@@H]1C [Example I-112]
5 | > 2000 nM | > 2000 nM | – | – | 0.3 nM | 0.2 nM | – | – | CC(C)(C)c1cc(-c2ccc(Cl)c(F)c2)nc2cc(C(=O)N3CCN(C(=O)CC4(C(=O)O)CCC4)CC3(C)C)oc12 [Example I-372]
6 | > 1000 nM | > 1000 nM | 0.8 nM | 0.1 nM | – | – | – | – | CC1(C(=O)O)CCC(C(=O)N2CCN(C(=O)c3cc4nc(-c5ccc(F)cc5)cc(C(C)(C)C)c4o3)C(C)(C)C2)CC1 (stereo not drawn) [Example I-198]
7 | > 2000 nM | > 2000 nM | – | – | 270 nM | 115 nM | – | – | CC1(C)CCC(c2cc(C(C)(C)C)c3oc(C(=O)N4CCC(=O)NCC4(C)C)cc3n2)CC1 [Example I-489]
8 | > 50000 nM | > 50000 nM | 15 nM | 13 nM | – | – | – | – | CO[C@@H](C(=O)N1CCN(C(=O)c2cc3nc(-c4ccc(F)cc4)cc(C(C)C)c3o2)C(C)(C)C1)c1ccccc1 [Example I-66]
9 | > 2000 nM | > 2000 nM | – | – | 130 nM | 106 nM | – | – | CC(C)(C)c1cc(C2CC3(CCC3)C2)nc2cc(C(=O)N3CCN(C(=O)[C@H]4COCCN4)CC3(C)C)oc12 [Example I-446]
10 | 830 nM | 500 nM | 9.4 nM | 7.8 nM | – | – | – | – | CC(C)c1cc(-c2ccc(F)cc2)nc2cc(C(=O)N3CCN(C(=O)[C@H]4C[C@@](O)(C(F)(F)F)C4)CC3(C)C)oc12 [Example I-137]
11 | > 1000 nM | > 1000 nM | 21 nM | 13 nM | – | – | – | – | Cc1nn(C)cc1S(=O)(=O)N1CCN(C(=O)c2cc3nc(-c4ccc(F)cc4)cc(C(C)C)c3o2)C(C)(C)C1 [Example I-146]
12 | > 2000 nM | > 2000 nM | – | – | 100 nM | 120 nM | – | – | Cc1coc(N2CCN(C(=O)c3cc4nc(C5CCC(C)(C)CC5)cc(C(C)(C)C)c4o3)C(C)(C)C2)n1 [Example I-382]
13 | – | – | > 2000 nM | > 2000 nM | – | – | > 2000 nM | > 2000 nM | CC1(C)CCC(c2cc(-c3ccc(F)cc3)nc3cc(C(=O)N4CCNC(=O)C4(C)C)oc23)CC1 [Example I-251]
14 | > 2000 nM | > 2000 nM | – | – | 240 nM | 92 nM | – | – | CC(C)(C)c1cc(-c2ccc(Cl)cc2)nc2cc(C(=O)N3CCC(=O)NCC3(C)C)oc12 [Example I-322]
15 | – | – | – | – | 2.2 nM | 1.5 nM | > 2000 nM | > 2000 nM | CC1(C)CCC(c2cc(C(C)(C)C)c3oc(C(=O)N4CCN(c5ccc(-c6nnn[nH]6)cn5)CC4(C)C)cc3n2)CC1 [Example I-539]
16 | > 1000 nM | > 1000 nM | 7.7 nM | 8.1 nM | – | – | – | – | CC(C)(C)c1cc(-c2ccc(F)cc2)nc2cc(C(=O)N3CCN(C(=O)c4ccn[nH]4)CC3(C)C)oc12 [Example I-152]
17 | > 1000 nM | > 1000 nM | 28 nM | 14 nM | – | – | – | – | CC(C)c1cc(-c2ccc(C(F)(F)F)cc2)nc2cc(C(=O)N3CCNC(=O)C3(C)C)oc12 [Example I-155]

Row | IC50 ([1]; Homo sapiens) | IC50 ([2]; Homo sapiens) | IC50 (PAR2 (HT-29 cells) [3]; [5]) | IC50 (PAR2 (HT-29 cells) [4]; [5]) | IC50 (PAR2 (HT-29 cells) [3]; [6]) | IC50 (PAR2 (HT-29 cells) [4]; [6]) | IC50 [1] | IC50 [2] | SMILES
18 | 610 nM | 810 nM | – | – | 0.9 nM | 0.5 nM | – | – | CC1(C)CCC(c2cc(C(C)(C)C)c3oc(C(=O)N4CCN(c5cncc(C(=O)O)n5)CC4(C)C)cc3n2)CC1 [Example I-464]
19 | > 2000 nM | > 2000 nM | – | – | 20 nM | 20 nM | – | – | CC(C)(C)c1cc(-c2ccc(Cl)c(F)c2)nc2cc(C(=O)N3CCN(c4cccnc4)C(=O)C3(C)C)oc12 [Example I-325]
20 | 6300 nM | 5500 nM | 1800 nM | 1100 nM | – | – | – | – | C[C@H]1CN(C(=O)c2cc3nc(-c4ccc(F)cc4)cc(C4(C)CC4)c3o2)CCN1C(=O)C1(O)CCOCC1 [Example I-121]
21 | > 2000 nM | > 2000 nM | – | – | 40 nM | 32 nM | – | – | Cc1cc(N2CCN(C(=O)c3cc4nc(C5CCC(C)(C)CC5)cc(C(C)(C)C)c4o3)C(C)(C)C2=O)n[nH]1 [Example I-309]
22 | > 2000 nM | > 2000 nM | – | – | 4.7 nM | 2.5 nM | – | – | CCS(=O)(=O)NCC(=O)N1CCN(C(=O)c2cc3nc(-c4ccc(Cl)c(F)c4)cc(C(C)(C)C)c3o2)C(C)(C)C1 [Example I-468]
23 | 12000 nM | 19000 nM | 68 nM | 66 nM | – | – | – | – | CC(C)c1cc(-c2ccc(F)cc2)nc2sc(C(=O)N3CCNC(=O)C3(C)C)nc12 [Example I-131]
24 | > 1630 nM | > 1630 nM | – | – | 0.7 nM | 0.4 nM | – | – | CC1(C)CCC(c2cc(C(C)(C)C)c3oc(C(=O)N4CCN(C(=O)CC(C)(C)C(=O)O)CC4(C)C)cc3n2)CC1 [Example I-416]
25 | > 1000 nM | > 1000 nM | 5.1 nM | 1.2 nM | – | – | – | – | CC(C)(C)c1cc(-c2ccc(F)cc2)nc2cc(C(=O)N3CCN(C(=O)c4ccccn4)CC3(C)C)oc12 [Example I-185]
26 | > 1000 nM | > 1000 nM | 3.1 nM | 1.6 nM | – | – | – | – | Cc1nnc(C(=O)N2CCN(C(=O)c3cc4nc(-c5ccc(F)cc5)cc(C(C)(C)C)c4o3)C(C)(C)C2)[nH]1 [Example I-160]
27 | > 2000 nM | > 2000 nM | 24 nM | 13 nM | – | – | – | – | CC(C)(C)c1cc(C2CCC(F)(F)CC2)nc2cc(C(=O)N3CCN(C(=O)[C@H]4CC[C@@H](O)CC4)CC3(C)C)oc12 [Example I-225]
28 | 15000 nM | 12000 nM | 7700 nM | 8700 nM | – | – | – | – | CC(C)c1cc(-c2ccc(F)cc2)nc2cc(C(=O)N3CCN(C(=O)C4(O)CCOCC4)C[C@@H]3C)oc12 [Example I-105]
29 | > 2000 nM | > 2000 nM | – | – | 240 nM | 210 nM | – | – | CC1(C)CCC(c2cc(C(C)(C)C)c3oc(C(=O)N4CCN(C(=O)c5ccc(C(=O)O)nc5)CC4(C)C)cc3n2)CC1 [Example I-380]
30 | > 1000 nM | > 1000 nM | 42 nM | 40 nM | – | – | – | – | Cc1ncc(S(=O)(=O)N2CCN(C(=O)c3cc4nc(-c5ccc(F)cc5)cc(C(C)C)c4o3)C(C)(C)C2)n1C [Example I-145]
31 | > 1000 nM | > 1000 nM | 190 nM | 260 nM | – | – | – | – | CC(C)(C)c1cc(-c2ccc(F)cc2)nc2cc(C(=O)N3CCN(C(=O)C4(C(=O)O)CC4)CC3(C)C)oc12 [Example I-193]
32 | 39000 nM | > 50000 nM | 3.1 nM | 3.5 nM | – | – | – | – | CC(C)(C)CC(O)C(=O)N1CCN(C(=O)c2cc3nc(-c4ccc(F)cc4)cc(C4(C)CC4)c3o2)C(C)(C)C1 (stereo not drawn) [Example I-38]
33 | > 2000 nM | > 2000 nM | – | – | 0.5 nM | 0.2 nM | – | – | CC1(C)CCC(c2cc(C(C)(C)C)c3oc(C(=O)N4CCN(C(=O)[C@H]5CC[C@@](C)(C(=O)OCOP(=O)(O)O)CC5)CC4(C)C)cc3n2)CC1 [Example I-509]
